How the values were obtained:
[1] = system: fibroblasts isolated from the lungs of mice; test: Western blotting and quantitative RT-PCR of fibroblasts isolated from lungs of treated BLM mice; format: in vivo; conditions: fibroblasts from BLM mice treated with nutlin-3a
Experimental: FIGS. 12A-12C. CSP-4 or nutlin-3a (NTL) inhibits proliferation of FL-fibroblasts. Mice were exposed to BLM for 14 d to induce significant lung fibrosis or to saline (fibrosis controls). 14 d later, mice exposed to BLM were treated with CSP-4 or CP, or nutlin-3a (see FIGS. 10A-10D/11A-11D). (FIG. 12A): Lung sections (d 21 after BLM injury) were subjected to immunohistochemistry (IHC) for Ki-67 to assess proliferation. One representative example is shown (n=9). Fibroblasts were isolated from the lungs of mice exposed to saline, BLM or BLM+nutlin-3a (as described in FIG. 11A) were tested for the changes in expression of col-I, p53 and downstream uPA and PAI-1 proteins by Western blotting (FIG. 12B):, and mRNA by quantitative RT-PCR (FIG. 12C).
Mice exposed to BLM 14 days earlier were treated with CSP-4 or its control (CP) or Nutlin-3a IV (as in Examples IX and X). Seven days later lung sections were obtained and subjected to IHC for Ki-67 to assess cell proliferation (see FIG. 12A). […] Fibroblasts isolated from the lungs of these animals (as described in Example X) were tested for the changes in expression of col-I, p53 and downstream uPA and PAI-1 proteins by Western blotting, and mRNA by quantitative RT-PCR (see FIGS. 12B-12C).

[2] = system: LPS-stimulated neutrophils and macrophages; conditions: cited from earlier work
FL-fibroblasts = test: Deletional analysis of CSP: peptide fragments tested on FL-fibroblasts for changes in p53, uPA, PAI-1 and col-I; format: cell-based, human
Experimental: FIGS. 6A-6D. CSP (CSP4) augments p53 expression via induction of miR-34a in FL(IPF)-fibroblasts. (FIG. 6A) NL- and FL-fibroblasts (n=3) were treated with PBS, CSP-4 (CSP) or control peptide (CP). RNA was analyzed for miR-34a by real-time PCR. (FIG. 6B) FL-fibroblasts were treated with PBS or CSP or CP with or without miR-34a antisense (miR-34a-AS) or pre-miR-34a or control miRNA (Ctr-miR). Conditioned media (CM) were immunoblotted for PAI-1 and lysates (CL) for p53 and β-actin. (FIG. 6C) FL-fibroblasts were treated with PBS or CSP or CP in the presence or absence of miR-34a-AS, pre-miR-34a or Ctr-miR. RNA was analyzed for changes in miR-34a by real-time PCR. (FIG. 6D) A series of overlapping deletions were made in CSP and these peptides were used to treat FL-fibroblasts with. The peptide sequences were CSP (SEQ ID NO:2), CSP-2: DGIWKAS (SEQ ID NO:12), CSP-3: KYWFYR (SEQ ID NO:13), CSP-4 (SEQ ID NO:1), and CP (SEQ ID NO:5). Changes in p53, uPA, PAI-1 and col-I were later assessed to identify the minimum amino acids required for the CSP effects.
A series of overlapping deletions were made in CSP and these peptide fragments were tested on FL-fibroblasts for changes in p53, uPA, PAI-1 and col-I (FIG. 6D).

ATII cell = conditions: BLM- or cigarette smoke-induced; cited from earlier work

Molecule	PAI-1 protein and mRNA expression [1]	col-I protein and mRNA expression [1]	p53 protein [1]	uPA protein and mRNA expression [1]	NF-κB DNA-binding activity [2]	production of proinflammatory cytokines [2]	activity in deletional analysis of the CSP 20mer (changes in p53, uPA, PAI-1 and col-I) (FL-fibroblasts)	ATII cell apoptosis (ATII cell)	ATII cell p53 expression (ATII cell)
COc1ccc(C2=NC(c3ccc(Cl)cc3)C(c3ccc(Cl)cc3)N2C(=O)N2CCNC(=O)C2)c(OC(C)C)c1 (stereo not drawn) [nutlin-3a, 4-2-4,5-dihydro-1H-imidazole-1-piperazin-2-one]	marked induction	significant suppressed	marked induction	significant suppressed	attenuated	attenuated			
FTTFTVT [CSP-4]							had the activity of the full length peptide	inhibited	inhibited

Source: patent US12173089B2, “Inhibition of pulmonary fibrosis with nutlin-3A and peptides” (BOARD OF REGENTS, THE UNIVERSITY OF TEXAS SYSTEM, priority 2013, dated 2024)
